This note sets out measurements from ChEMBL document CHEMBL1152761, “Synthesis of novel substituted pyrazole-5-carbohydrazide hydrazone derivatives and discovery of a potent apoptosis inducer in A549 lung cancer cells” (Bioorg Med Chem, 2009).

Holding throughout (assay type): functional, cell-based
Test [1] has as its system A549. Nature of the test: Growth inhibition of human A549 cells after 48 hrs by MTT assay. The settings on record: for IC50: A549, 48 h. On the technique in general: Formazan colour is commonly taken as a measure of viable cells.
For test [2], the system named is A549. Nature of the test: Induction of apoptosis in human A549 cells assessed as cell shrinkage like morphological changes at 1 uM after 48 hrs by light microscopy.
The test system of test [3] is A549. Kind of test: Induction of necrosis in human A549 cells assessed as LDH release at 0.1 uM after 24 to 48 hrs.
Test [4] has as its system A549. Kind of test: Induction of necrosis in human A549 cells assessed as LDH release at 1 uM after 24 to 48 hrs. On the technique in general: Release of lactate dehydrogenase indicates damage to the cell membrane.
Test [5] deals with A549. Kind of test: Induction of apoptosis in human A549 cells assessed as DNA fragmentation after 48 hrs by TUNEL assay.
Test [6] deals with A549. Kind of test: Induction of necrosis in human A549 cells assessed as LDH release at 0.5 uM after 24 to 48 hrs.
The subject of test [7] is A549. Kind of test: Induction of apoptosis in human A549 cells assessed as DNA fragmentation after 48 hrs by acridine orange staining.

Active and inactive are the calls of the source. The rule behind the calls is not given here.

For `C/C(=N\NC(=O)c1cc(-c2ccccc2)nn1Cc1ccc(C(C)(C)C)cc1)c1cc(Cl)cc(Cl)c1O`, in the test with A549 [1], the Activity result is “Dose-dependent effect” and the concentration for half-maximal inhibition (IC50) – broadly, the concentration that gives 50% inhibition – was determined as 3.17 µM.
Consider `COc1ccc(-c2cc(C(=O)N/N=C(\C)c3cc(Cl)cc(Cl)c3O)n(Cc3ccc(C(C)(C)C)cc3)n2)cc1`, for which, in the test with A549 [1], the Activity entry is “Dose-dependent effect” and 2.08 µM corresponded to half-maximal inhibition (IC50).
In the same order, the values of `C/C(=N\NC(=O)c1cc(-c2ccc(Cl)cc2)nn1Cc1ccc(C(C)(C)C)cc1)c1cc(C)ccc1O` are “Dose-dependent effect” and 2.49 µM.
Taken in the same sequence, the figures for `COc1ccc(-c2cc(C(=O)N/N=C(\C)c3cc(C)ccc3O)n(Cc3ccc(C(C)(C)C)cc3)n2)cc1` were “Dose-dependent effect” and 10.4 µM.
Take `C/C(=N\NC(=O)c1cc(-c2ccc(Cl)cc2)nn1Cc1ccc(C(C)(C)C)cc1)c1cc(Cl)cc(Cl)c1O`: in the test with A549 [1], the Activity entry was “Dose-dependent effect” and the IC50 is 7.9 µM.
Take `COc1ccc(-c2cc(C(=O)N/N=C(\C)c3cc(Cl)ccc3O)n(Cc3ccc(C(C)(C)C)cc3)n2)cc1`: in the test with A549 [1], the Activity entry was “Dose-dependent effect” and the midpoint of inhibition, the IC50, lay at 9.62 µM.
In the same order, the values of `C/C(=N\NC(=O)c1cc(-c2ccccc2)nn1Cc1ccc(C(C)(C)C)cc1)c1cc(C)ccc1O` are “Dose-dependent effect” and 6.1 µM.
For `C/C(=N\NC(=O)c1cc(-c2ccc(Cl)cc2)nn1Cc1ccc(C(C)(C)C)cc1)c1cc(Cl)ccc1O`, the outcome with A549 [2], in the test on A549 [5] and with A549 [7] was Active. Moreover, the result in the test with A549 [3], in the test on A549 [4] and in the test on A549 [6] was inactive. The Activity entry in the test on A549 [1] is “Dose-dependent effect”. Besides, the IC50 in the test with A549 [1] was 0.28 µM.
In the case of `C/C(=N\NC(=O)c1cc(-c2ccccc2)nn1Cc1ccc(C(C)(C)C)cc1)c1cc(Cl)ccc1O`, in the test with A549 [1], the Activity result was “Dose-dependent effect” and the IC50 is 2.77 µM.
